For assay [1], the system named is patients with Osteoarthritis. In words: Clinical study: antibiotic treatment of patients with osteoarthritis, KOOS (Knee Injury and Osteoarthritis Outcome Score). In kind it is in vivo, human. As to conditions: 100 mg daily for 4 weeks. The text has this:
Thirty patients were diagnosed and treated for one month with the antibiotic known generically internationally as Doxycycline, this was purchased as Vibramycin from Pfizer. Samples from synovial fluid were taken before and after treatment. We identified 30 patients that had clinical and radiological signs of Osteoarthritis. These patients were informed and signed a paper according to the instructions from the ethical committee (Northern Norway Health Region 5). We used the KOOS (Knee Injury and Osteoarthritis Outcome Score) [Roos et al: Development of a self-administered outcome measure. Journal of Orthopaedic and Sports Physical Therapy 78(2): 88-96, 1998] and the Lysholm score [Ref. […] and Lysholm: Rating systems in the Evaluation of Knee Ligament Injuries. Clinical Orthopaedics an Related Research Number 198 September 1985: 43-49.] During the first visit we took a sample from the synovial fluid. Standard technique, upper lateral portal, using a 10 ml. syringe. […] The samples were immediately put into an icebox and brought to the lab. All the patients were given Vibramycin 100 mg daily for 4 weeks. From the patients where we found the bacteria, we took new synovial-fluid samples using the same technique. […] KOOS: These parameters were analysed. • Symptoms • Activity of daily living • Sport • Quality of daily living • Pain

The test system of the next assay is collagenase. To be noted: Yu et al. 1991; cited from earlier work.
For assay [2], the system named is patients with Osteoarthritis. In words: Clinical study: response to antibiotic treatment as determined by direct questions to the patients. In kind it is in vivo, human. As to conditions: following 4 weeks of treatment. The text has this: Thirty patients were diagnosed and treated for one month with the antibiotic known generically internationally as Doxycycline, this was purchased as Vibramycin from Pfizer. Samples from synovial fluid were taken before and after treatment. We identified 30 patients that had clinical and radiological signs of Osteoarthritis. These patients were informed and signed a paper according to the instructions from the ethical committee (Northern Norway Health Region 5). During the first visit we took a sample from the synovial fluid. Standard technique, upper lateral portal, using a 10 ml. syringe. […] The samples were immediately put into an icebox and brought to the lab. All the patients were given Vibramycin 100 mg daily for 4 weeks. From the patients where we found the bacteria, we took new synovial-fluid samples using the same technique. Table 3 below show a summary of the response to antibiotic treatment with tetracycline for four weeks as determined by direct questions to the patients on how they felt.

Assay [3] relates to Pseudomonas. As to conditions: cited from earlier work.
Assay [4] has as its system Pseudomonas. As to conditions: cited from earlier work. The source holds these as a separate data set.

Molecules are shown by their SMILES.

For the compound `C[C@H]1c2cccc(O)c2C(O)=C2C(=O)[C@]3(O)C(O)=C(C(N)=O)C(=O)[C@@H](N(C)C)[C@@H]3[C@@H](O)[C@@H]21` [Vibramycin, Doxycycline], the “clinical scores for the patient (KOOS and Lysholm)” value in assay [1] is on record as “improved all the clinical scores”. Besides, in the assay on collagenase, the “the patient's collagenase activity” value is “inhibit the patient's collagenase activity”. For the same compound, in assay [2], the “symptoms in the majority of patients tested” value is recorded as “improved symptoms”.
Regarding `CC(O)C(=O)O.O=C(O)c1cn(C2CC2)c2cc(N3CCNCC3)c(F)cc2c1=O` [ciprofloxacinlactate], in the assay on Pseudomonas [3], the “effectiveness against Pseudomonas” value is listed as “effective against Pseudomonas”.
Regarding `NC(N)=NCCS` [mercaptoethylguanidine], in the assay on Pseudomonas [4], the “inflammatory response of Pseudomonas infection due to nitric oxide” value is reported as “inhibit the inflammatory response”.
